This note sets out measurements from PubChem BioAssay (NCI).

“And” between values parts separate entries of the source, which are not always exact repeats. Equal values may be shown once.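 Growth conditions: 96-well plates. Treatment: test compound, 48 hours, 5 concentrations. Analysis: linear interpolation between bracketing concentrations; unreached endpoints set to highest concentration. The concentration for 50% growth inhibition is given as GI50. Definition used: TGI = concentration required for complete inhibition of growth.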

Among the test systems are BT-549 breast; HS 578T breast; MDA-N.
Holding throughout (assay): growth of human tumour cells (NCI), 48 h

For the compound `NC(=S)N/N=C1\c2ccccc2-c2c(F)c(F)c(F)c(F)c21`, in the assay with BT-549 breast, the GI50 was 4.92 µM and the TGI amounted to 10.7 µM. Besides, in the assay with HS 578T breast, the GI50 was 6.25 µM and the TGI was 39.5 µM.

In the case of `Cc1ccc(C=C2C(Cl)=C(Cl)C(Cl)=C2Cl)cc1`, in the assay with BT-549 breast, the GI50 was 0.882 µM and the TGI is 3.32 µM. Besides, in the assay on HS 578T breast, the GI50 was 0.636 µM and the TGI is 7.56 µM.

As to `C=C1C(=O)O[C@H]2[C@H](OC(C)=O)[C@@H](C)CCCC3(C)OC3CCC3(CO3)[C@H](O)C[C@@H]12` (some centres undefined), in the assay with BT-549 breast, the GI50 is 11.4 µM and the TGI came out at 32 µM. In the assay on HS 578T breast, the GI50 is 11.8 µM and the TGI stood at 43.4 µM.

On to `COc1cc(CNCCN2C(=O)c3ccc4c5c(ccc(c35)C2=O)C(=O)N(CCNCc2cc(OC)c(OC)c(OC)c2)C4=O)cc(OC)c1OC`, for which, in the assay on BT-549 breast, the GI50 is 0.546 µM and the TGI was found to be 1.22 µM.

As to `COc1cccc(-c2cc(=O)c3cc(N4CCOCC4)ccc3[nH]2)c1`, the TGI in the assay with HS 578T breast amounted to 0.055 µM; in the assay on MDA-N it was 0.0278 µM.

Regarding `COc1ccc(/C=C2\COc3ccc(O)c(O)c3C2=O)c(OC)c1OC`, in the assay with BT-549 breast, the GI50 was 4.03 µM and the TGI stood at 12 µM. Moreover, in the assay with HS 578T breast, the GI50 was 4.22 µM and the TGI is over 100 µM.

With `COc1ccc(CCN(CC(=O)N(CC(N)=O)C2CCC[C@@H]2OCc2ccccc2)C(=O)CN(C(=O)CN(CCc2ccc(Cl)cc2)C(=O)CN(C(=O)CN(C)Cc2ccccc2F)[C@H](C)C2CCCCC2)[C@H](C)C2CCCCC2)cc1OC` (some centres undefined), the GI50 in the assay with BT-549 breast is 1.61 µM; in the assay on HS 578T breast it was 7.26 µM. Further, the TGI in the assay on BT-549 breast was 15.6 µM; with HS 578T breast it was over 50 µM.

Regarding `CN(C)CC(=O)Nc1ccc2ncnc(Nc3ccc(Oc4cccc(C(F)(F)F)c4)c(Cl)c3)c2c1`, in the assay with BT-549 breast, the GI50 was 3.91 µM and the TGI is 17.3 µM. Further, in the assay on HS 578T breast, the GI50 is 1.78 µM and the TGI turned out to be 4.58 µM.

With `Cn1cc(C2=C(c3cn(-c4ccccc4)c4ccccc34)C(=O)NC2=O)c2ccccc21`, in the assay with BT-549 breast, the GI50 is 16.2 µM and the TGI is over 25 µM. Moreover, in the assay with HS 578T breast, the GI50 is over 14.6 µM and the TGI is over 25 µM.

Turning to `CC1(C)N=C(N)N=C(N)N1c1ccc(OCCCNC(=O)Nc2cccc(S(=O)(=O)F)c2)c(Cl)c1`, in the assay with HS 578T breast, the GI50 was 5.08 µM and the TGI is over 100 µM.

On to `COC(=O)c1cc2oc(/C=C3/SC(=S)N(N)C3=O)cc2n1Cc1ccccc1`, for which, in the assay with BT-549 breast, the GI50 is 3.5 µM and the TGI is 26.7 µM. Also, in the assay on HS 578T breast, the GI50 is 0.699 µM and the TGI was determined as 3.5 µM.

On to `CCCCCCn1c(SC)nc(COC(=O)NC)c1COC(=O)NC`, for which the results for the TGI in the assay with BT-549 breast, in the assay on HS 578T breast and in the assay with MDA-N were 34 µM, 40.3 µM and 36.1 µM, respectively.

`O=c1cnnc(N/N=C/c2ccccc2O)[nH]1`: in the assay on BT-549 breast, the GI50 was 6.36 µM and the TGI was over 100 µM. Besides, in the assay with HS 578T breast, the GI50 is 28.2 µM and the TGI is over 100 µM.

As to `Cn1cc(-c2nc(-c3c[nH]c4ncccc34)cs2)c2ccccc21`, in the assay with BT-549 breast, the GI50 was 23.7 µM and the TGI was over 100 µM. Also, in the assay on HS 578T breast, the GI50 was over 100 µM and the TGI is over 100 µM.

As to `CC1(C)N=C(N)N=C(N)N1c1ccc(Cl)cc1`, in the assay on BT-549 breast, the GI50 was 14.6 µM and the TGI is over 100 µM. In the assay with HS 578T breast, the GI50 is over 100 µM and the TGI is over 100 µM.

As to `CC(C)(C)c1cc(NC(=O)Nc2ccc(-c3cn4c(n3)sc3cc(OCCN5CCOCC5)ccc34)cc2)no1`, the GI50 was 3.52 µM and 0.819 µM and 7.47 µM in the assay with BT-549 breast; 1.35 µM and 0.328 µM and 1.75 µM in the assay with HS 578T breast. For the same compound, the TGI is 20.3 µM and 5.16 µM and > 10 µM with BT-549 breast; 25.3 µM and 2.92 µM and > 10 µM in the assay on HS 578T breast.

On to `C/C(=N\OCC(O)CNCCSCc1ccccc1)c1ccccc1Cl` (centres undefined), for which the results for the TGI in the assay on HS 578T breast and with MDA-N were 89.5 µM and 37.4 µM, respectively.

Regarding `CC(=O)CC/C=C(\C)[C@H](O)[C@H](C)C(=O)O[C@H]1C[C@H](C)C=C2C=C[C@@]3(C)O[C@@H](O)CC(=O)[C@]3(C)[C@H]21`, in the assay with BT-549 breast, the GI50 was 0.781 µM and the TGI amounted to 3.76 µM. In the assay with HS 578T breast, the GI50 was 0.492 µM and the TGI amounted to 4.48 µM.

As for `CC(C)[C@@](O)(c1ccc2cc(OC(F)F)c(OC(F)F)cc2c1)c1cn[nH]n1`, in the assay on BT-549 breast, the GI50 is 15.2 µM and the TGI was found to be 29.5 µM. Further, in the assay on HS 578T breast, the GI50 is 21.1 µM and the TGI was 73.7 µM.

Regarding `N/N=C(\c1nc2ccc([N+](=O)[O-])cc2[nH]c1=O)C(O)c1ccc(Cl)c(Cl)c1` (centres undefined), the TGI with BT-549 breast, in the assay with HS 578T breast and in the assay on MDA-N was over 100 µM each time.

For `O=C(c1ccccc1Cl)n1oc2ccccc2c1=O`, the TGI in the assay on BT-549 breast, in the assay with HS 578T breast and in the assay with MDA-N was over 100 µM throughout.

For `Oc1ccc2ccccc2c1N=Nc1cc(Cl)ccc1Cl`, the figures for the TGI in the assay with BT-549 breast, in the assay with HS 578T breast and in the assay on MDA-N were over 50 µM, 21.4 µM and over 50 µM, respectively.

In turn, `O=C(NCCCl)Nc1cccnc1` showed a TGI with MDA-N of 67.9 µM.

On to `C#Cc1cccc(Nc2ncnc3ccc(OCCCCNCCS(C)(=O)=O)cc23)c1`, for which, in the assay with BT-549 breast, the GI50 is 8.33 µM and the TGI is over 25 µM. Further, in the assay with HS 578T breast, the GI50 is 8.66 µM and the TGI was over 23.2 µM.

For `COc1ccc(NC2=C(I)C(=O)c3ncccc3C2=O)cc1`, the GI50 in the assay on BT-549 breast was 1.27 µM; with HS 578T breast, 0.834 µM. Moreover, the figures for the TGI in the assay with BT-549 breast and in the assay with HS 578T breast were 2.59 µM and 5.04 µM, respectively.

For `O=C(c1ccc(C(F)(F)F)c(Cl)c1)N(Cc1ccc(Cl)cc1)c1ccc(-c2cc(C(F)(F)F)[nH]n2)c(O)c1`, the GI50 in the assay with BT-549 breast is 1.31 µM; in the assay with HS 578T breast it was 1.05 µM. For the same compound, the figures for the TGI in the assay on BT-549 breast and in the assay with HS 578T breast were 3.99 µM and 3.03 µM, respectively.

With `O=c1c2ccccc2c(/C=N\NC2=NCCN2)c2oc3ccccc3n12`, in the assay on BT-549 breast, the GI50 was 31.3 µM and the TGI is over 100 µM.

For the compound `COc1ccc(C2CC(c3ccc(Nc4ccnc5cc(Cl)ccc45)cc3)=NN2C=O)cc1` (centres undefined), in the assay with BT-549 breast, the GI50 was 10.9 µM and the TGI turned out to be 36.6 µM. For the same compound, in the assay with HS 578T breast, the GI50 is over 100 µM and the TGI is over 100 µM.

On to `CCOC(=O)C1=C(C)NC(=O)NC1CN1C(=O)c2ccccc2C1=O` (centres undefined), for which, in the assay on BT-549 breast, the GI50 is over 100 µM and the TGI is over 100 µM. In addition, in the assay with HS 578T breast, the GI50 is over 100 µM and the TGI is over 100 µM.

On to `COc1ccc2c3c1OC1C(OC)(OC)C=C[C@@]4(Br)[C@@H](C2)N(CC2CC2)CC[C@]314` (some centres undefined), for which the TGI in the assay with HS 578T breast and in the assay on MDA-N was over 100 µM in each case.

In the case of `COc1cc([N+](=O)[O-])c(OC)cc1-c1nc2sc(C)cn2c1/C(N)=N/C(=N)N`, in the assay on BT-549 breast, the GI50 is 29.8 µM and the TGI is over 100 µM. In the assay with HS 578T breast, the GI50 is 25.2 µM and the TGI amounted to 89.2 µM.

`COC(=O)c1ccc(/C=C(\c2ccc([N+](=O)[O-])o2)S(=O)(=O)c2ccc(NC(C)=O)cc2)o1`: the figures for the TGI in the assay with BT-549 breast and in the assay on HS 578T breast were 5.43 µM and 6.34 µM, respectively.

`O=C(O)c1cc(=O)cc(C(=O)O)o1`: in the assay with BT-549 breast, the GI50 was over 100 µM and the TGI is over 100 µM. In the assay with HS 578T breast, the GI50 was over 100 µM and the TGI was over 100 µM.

Take `O=C(C=P(c1ccccc1)(c1ccccc1)c1ccccc1)CCl`: in the assay with BT-549 breast, the GI50 is 1.89 µM and the TGI came to 7.14 µM. In addition, in the assay on HS 578T breast, the GI50 is 1.53 µM and the TGI is 11 µM.

With `CN(C)CCCSc1ccccc1NC1=C(Cl)C(=O)C(Nc2ccccc2SCCCN(C)C)=C(Cl)C1=O`, in the assay on BT-549 breast, the GI50 is 1.46 µM and the TGI stood at 2.87 µM. In the assay with HS 578T breast, the GI50 is 3.14 µM and the TGI came out at 21.4 µM.

With `Cc1cnc2oc3ccc(O)cc3c2c1-c1ccccc1`, in the assay on BT-549 breast, the GI50 is 19.8 µM and the TGI came out at 98.8 µM. Further, in the assay with HS 578T breast, the GI50 was 19.6 µM and the TGI is 74.4 µM.

Take `N#Cc1c(NC(=O)c2ccc(F)cc2)sc2c1CCCC2`: in the assay with BT-549 breast, the GI50 is over 25 µM and the TGI is over 25 µM. In addition, in the assay with HS 578T breast, the GI50 is over 25 µM and the TGI was over 25 µM.

Consider `Cc1ccc2cccc(OC(=O)Nc3cccc(C(F)(F)F)c3)c2n1`, for which the values for the GI50 in the assay with BT-549 breast and in the assay on HS 578T breast were 10.7 µM and 3.53 µM, respectively. Also, the TGI in the assay on BT-549 breast is 26.8 µM; in the assay on HS 578T breast it was 18.9 µM.

Take `COc1ccc(C(=NN=C(N)N)c2ccc(OC)cc2)cc1`: the GI50 in the assay with BT-549 breast is 3.94 µM; in the assay on HS 578T breast it was 1.75 µM. Moreover, the TGI stood at 15.6 µM in the assay with BT-549 breast and 6.93 µM with HS 578T breast.

Regarding `COc1cc(/C=C/c2cc(/C=C/c3ccc(O)c(OC)c3)n(C(=O)Nc3ccccc3Cl)n2)ccc1O`, in the assay with BT-549 breast, the GI50 is 0.303 µM and the TGI worked out at 2.75 µM. Moreover, in the assay on HS 578T breast, the GI50 is 0.114 µM and the TGI stood at 0.89 µM.
